Test results reported in patent US6414007B1, “Oxiranyl-triazoline thiones and their use as microbicides” (Bayer Aktiengesellschaft, priority 1997, dated 2002).

How the values were obtained:
Podosphaera leucotricha = experiment: Podosphaera test (apple)/protective; format: in vivo; details: protective, evaluation 10 days after inoculation
Experimental: Podosphaera test (apple)/protective Solvent: 47 parts by weight of acetone Emulsifier: 3 parts by weight of alkylaryl polyglycol ether To produce a suitable preparation of active compound, 1 part by weight of active compound is mixed with the stated amounts of solvent and emulsifier, and the concentrate is diluted with water to the desired concentration. To test for protective activity, young plants are sprayed with the preparation of active compound at the stated application rate. After the spray coating has dried on, the plants are inoculated with an aqueous spore suspension of the causative organism of apple mildew Podosphaera leucotricha. The plants are then placed in a greenhouse at approximately 23° C. and a relative atmospheric humidity of approximately 70%. Evaluation was carried out 10 days after the inoculation. 0% means an efficacy which corresponds to that of the control, whereas an efficacy of 100% means that no infections are observed.

Puccinia recondita [1] = experiment: Puccinia test (wheat)/protective; format: in vivo; details: protective, application rate 125 g/ha, evaluation 10 days after inoculation
Experimental: (§1) Puccinia test (wheat)/protective Solvent: 25 parts by weight of N,N-dimethylacetamide Emulsifier: 0.6 parts by weight of alkylaryl polyglycol ether To produce a suitable preparation of active compound, 1 part by weight of active compound is mixed with the stated amounts of solvent and emulsifier, and the concentrate is diluted with water to the desired concentration. To test for protective activity, young plants are sprayed with the preparation of active compound at the stated application rate. After the spray coating has dried on, the plants are sprayed with a Conidia 683 suspension of Puccinia recondita. The plants remain in an incubation cabin at 20° C. and 100% relative atmospheric humidity for 48 hours. The plants are placed in a greenhouse at a temperature of approximately 20° C. and a relative atmospheric humidity of approximately 80% to promote the development of rust pustules. Evaluation is carried out 10 days after the inoculation. 0% means an efficacy which corresponds to that of the control, whereas an efficacy of 100% means that no infections are observed.

Leptosphaeria nodorum = Leptosphaeria nodorum test (wheat)/protective; format: in vivo; details: protective, application rate 250 g/ha, evaluation 10 days after inoculation
Experimental: Leptosphaeria nodorum test (wheat)/protective Solvent: 25 parts by weight of N,N-dimethylacetamide Emulsifier: 0.6 parts by weight of alkylaryl polyglycol ether To produce a suitable preparation of active compound, 1 part by weight of active compound is mixed with the stated amounts of solvent and emulsifier, and the concentrate is diluted with water to the desired concentration. To test for protective activity, young plants are sprayed with the preparation of active compound at the stated application rate. After the spray coating has dried on, the plants are dusted with a spore suspension of Leptosphaeria nodorum. The plants remain in an incubation cabin at 20° C. and 100% relative atmospheric humidity for 48 hours. The plants are placed in a greenhouse at a temperature of approximately 15° C. and a relative atmospheric humidity of 80%. Evaluation is carried out 10 days after the inoculation. 0% means an efficacy which corresponds to that of the control, whereas an efficacy of 100% means that no infections are observed.

[2] = test system: Erysiphe graminis f.sp. hordei; experiment: Erysiphe test (barley)/curative; format: in vivo; details: curative (sprayed 48 hours after inoculation), application rate 250 g/ha, evaluation 7 days after inoculation
Experimental: (§2) Erysiphe test (barley)/curative Solvent: 25 parts by weight of N,N-dimethylacetamide Emulsifier: 0.6 parts by weight of alkylaryl polyglycol ether To produce a suitable preparation of active compound, 1 part by weight of active compound is mixed with the stated amounts of solvent and emulsifier, and the concentrate is diluted with water to the desired concentration. To test for curative activity, young plants are dusted with spores of Erysiphe graminis f.sp. hordei. 48 hours after the inoculation, the plants are sprayed with the preparation of active compound at the stated application rate. The plants are placed in a greenhouse at a temperature of approximately 20° C. and a relative atmospheric humidity of approximately 80% to promote the development of mildew pustules. Evaluation is carried out 7 days after the inoculation. 0% means an efficacy which corresponds to that of the control, whereas an efficacy of 100% means that no infections are observed.

[3] = test system: Erysiphe graminis f.sp. hordei; experiment: Erysiphe test (barley)/protective; format: in vivo; details: protective, application rate 125 g/ha, evaluation 7 days after inoculation
Experimental: as §2, with “(barley)/protective” for “(barley)/curative”, “protective” for “curative”, “young” for “young plants are dusted with spores of Erysiphe graminis f.sp. hordei. 48 hours after the inoculation, the”, “rate. After the spray coating has dried on, the plants are dusted with spores of Erysiphe graminis f.sp. hordei.” for “rate.”

Puccinia recondita [4] = experiment: Puccinia test (wheat)/curative; format: in vivo; details: curative, application rate 125 g/ha, evaluation 10 days after inoculation
Experimental: as §1, with “(wheat)/curative” for “(wheat)/protective”, “curative” for “protective”, “with” for “with the preparation of active compound at the stated application rate. After the spray coating has dried on, the plants are sprayed with”, “Conidia” for “Conidia 683”, “hours. The plants are then sprayed with the preparation of active compound at the stated application rate.” for “hours.”

Coriolus versicolor = experiment: Inhibition test on giant colonies of Basidiomycetes; format: cell-based; details: Trametes versicolor; 6 ppm of active compound, malt extract peptone agar, 26° C., evaluation after 3 or 7 days; read-out: Inhibition in per cent of radial growth of giant colonies
Experimental: Inhibition test on giant colonies of Basidiomycetes Solvent: Dimethylsulphoxide To produce a suitable preparation of active compound, 0.2 parts by weight of active compound are admixed to 99.8 parts by weight of the abovementioned solvent. An agar, prepared by using malt extract peptone, is mixed in a liquid state with the preparation of active compound at the particular desired application rate. After solidification, the resultant nutrient medium is incubated at 26° C. with mycelium pieces punched out of colonies of Coriolus versicolor. Evaluation is carried out after 3 or 7 days' storage at 26° C. by measuring the growth of the mycelium and scoring the resulting inhibition in percent in comparison to the untreated control. 0% means an inhibition of growth which corresponds to that of the untreated control, while an inhibition of growth of 100% means that no growth of mycelium is observed.

[5] = test system: Erysiphe graminis f.sp. tritici; experiment: Erysiphe test (wheat)/protective; format: in vivo; details: protective, application rate 250 g/ha, evaluation 7 days after inoculation
Experimental: as §2, with “(wheat)/protective” for “(barley)/curative”, “protective” for “curative”, “young” for “young plants are dusted with spores of Erysiphe graminis f.sp. hordei. 48 hours after the inoculation, the”, “rate. After the spray coating has dried on, the plants are dusted with spores of Erysiphe graminis f.sp. tritici.” for “rate.”

Structure (SMILES)	Efficacy in % (Podosphaera leucotricha; application rate 1 g/ha)	Efficacy in % (Podosphaera leucotricha; application rate 10 g/ha)	Efficacy in % (Puccinia recondita [1])	Efficacy in % (Leptosphaeria nodorum)	Efficacy in % [2]	Efficacy in % [3]	Efficacy in % (Puccinia recondita [4])	inhibition at 6 ppm (Coriolus versicolor)	Efficacy in % [5]	melting point
Fc1ccc(C2(Cn3nc[nH]c3=S)OC2c2ccccc2Cl)cc1 (stereo not drawn) [A, 3-(2-chloro-phenyl)-2-(4-fluoro-phenyl)-2-[(4,5-dihydro-5-thiono-1,2,4-triazol-1-yl)-methyl]-oxirane, reference compound]	57%	92%	–	–	–	–	–	–	–	–
CCOCCCNC(=O)n1cnn(CC2(c3ccc(F)cc3)OC2c2ccccc2Cl)c1=S (stereo not drawn) [Example 1]	65%	100%	100%	100%	100%	100%	100%	100%	100%	–
COCCNC(=O)n1cnn(CC2(c3ccc(F)cc3)OC2c2ccccc2Cl)c1=S (stereo not drawn) [Example 2]	88%	100%	100%	–	–	100%	100%	–	–	105 to 107 °C
CC(C)NC(=O)n1cnn(CC2(c3ccc(F)cc3)OC2c2ccccc2Cl)c1=S (stereo not drawn) [Example 3]	80%	100%	–	–	–	100%	100%	100%	100%	104 to 106 °C
